In publication PMC12048343, “Discovery of a small molecule secreted clusterin enhancer that improves memory in Alzheimer’s disease mice” (npj Drug Discovery, 2025):
pEC50, pIC50: −log10 of the molar value. In brackets after ≈: the same amount, converted by molar mass. Entries after “also recorded” stand apart in the source; their conditions may differ. Read-outs that look alike come from different tables or passages of the source.

How the values were obtained:
[1] = Liver microsome stability assay; assay type: in vitro ADME; details: pH 7.4; human liver microsomes 0.5 mg/mL, NADPH, 37 °C, up to 120 min; read-out: Microsomal Stability t1/2
Description: An aliquot (1 µL) of test compound (1 mM, 100% DMSO) was added to an aqueous liver microsome solution (1000 µL, PBS pH 7.4, 0.5 mg/mL human liver microsomes (Thermo Fisher Scientific, Cat#HMMPL), 2 mM NADPH, 2 mM MgCl2) and incubated at 37 °C for 120 min. Aliquots (50 µL) of the microsome solution were taken at various time points (0, 5, 10, 15, 30, 60, 90, 120 min) and added to a reaction quenching solution (200 µL 100% Acetonitrile) containing an internal standard. Solutions were clarified by centrifugation (16,000 x g, 5 min), and the supernatants were transferred to new tubes and lyophilized. Samples were reconstituted in 100 µL of 50/50/0.1 (Water/Acetonitrile/Formic Acid) prior to analysis via liquid chromatography-tandem mass spectrometry (LC-MS/MS). Chromatographic peak areas normalized to the internal standard were plotted at each time point and the half-life (t1/2) of compound in liver microsomes was determined by using the trendline equation to calculate the time at which compound abundance was 50% of that at time point 0 (t0).

[2] = Plasma binding assay (dialysis); assay type: in vitro ADME; details: dialysis 4.5 hours, 37 °C
Description: (§1) Brain tissue was homogenized in PBS (pH 7.4) (1: 3 weight(mg)/volume(µL)) and the protein concentration was determined using the Micro BCA™ Protein Assay Kit (Thermo Fisher Scientific, Cat#23235). Brain homogenate was clarified and diluted to 20 mg/mL in PBS (pH 7.4). Either brain homogenate or plasma was and added to Slide-A-Lyzer™ MINI Dialysis Devices, 10 K MWCO dialysis cups (Thermo Fisher Scientific, Cat#PI88401) in a 48-well plate containing PBS (500 µL; pH 7.4). 1 µL of 1 mM compound was added to the brain homogenate (Final Concentration: 2 µM compound, 0.5% DMSO) and incubated on a rocker for 4.5 hours at 37 °C. 50 µL of brain homogenate or plasma (within the dialysis cup) and PBS (within the 48-well plate) were transferred to new microcentrifuge tubes containing 400 µL of quenching reagent (100% Acetonitrile) containing internal standard. Solutions were clarified by centrifugation (16,000 x g, 5 min), and the supernatants were transferred to new tubes and lyophilized. Samples were reconstituted in 100 µL of 50/50/0.1 (Water/Acetonitrile/Formic Acid) prior to analysis via liquid chromatography-tandem mass spectrometry (LC-MS/MS). The % of the unbound drug (fu,bound) was calculated using the following equation:
(§2) % Bound = [1− (PBS chromatographic peak area/ brain homogenate or plasma chromatographic peak area)] x 100

[3] = Brain tissue binding assay (dialysis); assay type: in vitro ADME; details: brain homogenate 20 mg/mL, 2 µM compound, dialysis 4.5 hours, 37 °C
Description: as §1, §2

[4] = tested on: sCLU secreted from human U-87 MG glioblastoma cells; test: Human sCLU AlphaLISA on supernatant of U-87 MG cells (HTS, re-test, dose response); assay type: cell-based; details: for sCLU levels relative to DMSO control: 5 µM
Description: Cell culture supernatant (2 μL) was added to a 384-well proxy plate preloaded with AlphaLISA HiBlock buffer (2 µL, 1X, CAT#AL004C, Perkin Elmer). Then an anti-sCLU antibody mixture (2 µL, mAb J84, biotinylated (10 nM, Cat# 3717-6-1000, Mabtech) and mAb CLU aa 22-227 (Cat#AF7084, R&D Systems), Acceptor bead conjugated (50 µg/mL, Cat#6772001, Perkin Elmer)) was added and incubated at room temperature for 1 hour. AlphaScreen Streptavidin Donor beads (2 µL, Cat#6760002S, Perkin Elmer) were added, incubated for an additional 30 min in the dark, and the plate was read in an Envision plate reader.
Human glioblastoma U-87 MG cells were proliferated in EMEM with 10% FBS and 1% P/S (complete medium) in 10 cm dishes until approximately 90% confluent. Following trypsinization, a suspension of 2 × 10^5 cells/mL (25 µL) were added to 384-well plates containing complete medium (25 µL) and library compounds from 9 plates (5 µM). After incubation for 30 h at 37 °C and 5% CO2, 2 μL of cell culture supernatant were analyzed via human sCLU AlphaLISA as described above. Cell culture medium and cells were added to the 384-well plates using the MultiDrop. The BioMek FX was used to pin the drugs and transfer the cell culture supernatant. The MANTIS liquid handler was used to added human sCLU AlphaLISA reagents.
Human glioblastoma U-87 MG cells were proliferated in EMEM with 10% FBS and 1% P/S (complete medium) in 10 cm dishes until approximately 90% confluent. […] After incubation for 30 hours at 37 °C and 5% CO2, 2 μL of cell culture supernatant were analyzed via human sCLU AlphaLISA as described above.

Kinetic solubility = assay type: physicochemical; details: aqueous buffer, kinetic from dmso stock, PBS pH 7.4, 37 °C, 100 µM nominal
Description: Test compound (10 mM, 100% DMSO) was diluted separately into aqueous buffer (100 µM; PBS pH 7.4) and DMSO at various concentrations (1000, 100, 10, 1, 0.1 µM). The solutions were then incubated at 37 °C for 90 min and centrifuged (16000xg, 5 min). An aliquot of each supernatant was analyzed by UV/Vis (if possible) or LC-MS/MS. A standard curve was made by plotting the known amount of analyte per standard in DMSO vs. absorbance or chromatographic peak area. Kinetic solubility (mM) was calculated using the trendline equation with maximum absorbance or chromatographic peak area observed in the aqueous sample.

BRD2 = BRD2 (Homo sapiens, UniProt P25440); test: BRD2 inhibition assay; assay type: biochemical
[5] = Blood-Brain Barrier (BBB) permeability assay (IAM column, Pm); assay type: in vitro ADME; details: pH 7.4; Pm > 1.0 = CNS+
Description: A liquid chromatography-ultraviolet/visible spectroscopy (LC-UV/Vis) assay was performed on a 1290 Infinity HPLC system (Agilent Technologies) with an HPLC column containing immobilized phosphatidylcholine (IAM.PC.DD, Regis Technologies, Cat#774011, 5 µm 300 Å 100 ×4.6 mm). The HPLC method was a mixture of 6.7 mM phosphate buffer saline (pH 7.4; solvent A) and acetonitrile (solvent B), and a gradient was used for the elution of the compounds (min/%B: 0/20, 20/60, 21/20, 30/20). The retention time of the compound (tr) and void volume time of the column (t0) were recorded. Blood-brain barrier (BBB) permeability (Pm) was calculated using the following equations as described by Yoon et al. (10.1177/1087057105281656):
KIAM = (tr − t0) / t0; Pm = (KIAM / MW^4) x 10^10
Compounds with a Pm > 1.0 were determined to be BBB permeable (CNS + ) at pH 7.

BRD4 = BRD4 (Homo sapiens, UniProt O60885); test: BRD4 inhibition assay; assay type: biochemical
[6] = tested on: nCLU levels in U-87 MG cells; test: nCLU levels in U-87 MG cells; assay type: cell-based, human; details: 5 µM
[7] = Homo sapiens, U-87 MG cells, 30 h, AlphaLISA of supernatant, read-out: EC50 for sCLU increase
[8] = selective HDAC / BET inhibitors, dose response (Fig. S1), read-out: sCLU EC50

Sequence of BRD2 (P25440 whole entry): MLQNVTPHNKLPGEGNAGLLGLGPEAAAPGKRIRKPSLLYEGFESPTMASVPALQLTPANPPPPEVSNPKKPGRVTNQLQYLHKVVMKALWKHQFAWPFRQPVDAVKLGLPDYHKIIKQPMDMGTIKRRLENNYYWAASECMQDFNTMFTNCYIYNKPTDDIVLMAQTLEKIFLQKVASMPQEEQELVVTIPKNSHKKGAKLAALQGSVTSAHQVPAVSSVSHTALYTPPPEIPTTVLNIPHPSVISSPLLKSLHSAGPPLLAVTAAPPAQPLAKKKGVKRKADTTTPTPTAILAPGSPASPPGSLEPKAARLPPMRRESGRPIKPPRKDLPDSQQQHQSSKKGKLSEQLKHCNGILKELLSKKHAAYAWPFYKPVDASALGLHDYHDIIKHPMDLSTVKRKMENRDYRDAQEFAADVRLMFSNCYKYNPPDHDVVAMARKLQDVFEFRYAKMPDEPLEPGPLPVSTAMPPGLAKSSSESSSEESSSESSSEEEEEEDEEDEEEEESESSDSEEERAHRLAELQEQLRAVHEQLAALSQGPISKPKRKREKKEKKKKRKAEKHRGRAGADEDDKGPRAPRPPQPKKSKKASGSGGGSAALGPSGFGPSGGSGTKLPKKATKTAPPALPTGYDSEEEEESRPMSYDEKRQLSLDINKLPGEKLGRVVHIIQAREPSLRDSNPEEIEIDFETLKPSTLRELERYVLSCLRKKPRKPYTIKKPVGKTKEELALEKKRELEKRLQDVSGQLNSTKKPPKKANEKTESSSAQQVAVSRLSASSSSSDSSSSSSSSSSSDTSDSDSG

SMILES: Cc1sc2c(c1C)C(c1ccc(Cl)cc1)=N[C@@H](CC(=O)N1CCCC1)c1nnc(C)n1-2 [DDL-352]
- half-life at 1 µM [1]: 62 min
- Plasma Binding [2]: 96 % bound
- Brain Tissue Binding [3]: 64 % bound
- pEC50 [4, 7]: 5.84
- solubility kinetic at 90 min (Kinetic solubility): > 100 µM
- pIC50 (BRD2; read-out: BRD2 IC50): 6.19
- PAMPA Pm [5]: 0.98
- pIC50 (BRD4; read-out: BRD4 IC50): 6.98

SMILES: Cc1sc2c(c1C)C(c1ccc(Cl)cc1)=N[C@@H](CC(=O)NCC(=O)OC(C)C)c1nnc(C)n1-2 [DDL-354]
- half-life at 1 µM [1]: 12 min
- Plasma Binding [2]: 91 % bound
- Brain Tissue Binding [3]: 67 % bound
- pEC50 [4, 7]: 6.17
- solubility kinetic at 90 min (Kinetic solubility): 91.1 µM (≈ 45.6 µg/mL)
- pIC50 (BRD2; read-out: BRD2 IC50): 6.42
- PAMPA Pm [5]: 0.76
- pIC50 (BRD4; read-out: BRD4 IC50): 7.32

SMILES: Nc1cc(F)ccc1NC(=O)/C=C/c1cnn(C/C=C/c2ccccc2)c1 [RGFP966]
- pEC50 ([4]; Homo sapiens, U-87 MG, selective HDAC / BET inhibitors, dose response 2-5000 nM (Fig. S1), read-out: sCLU EC50): 5.00

SMILES: Cc1sc2c(c1C)C(c1ccc(Cl)cc1)=N[C@@H](CC(=O)OC1CCCC1)c1nnc(C)n1-2 [DDL-351]
- half-life at 1 µM [1]: 3 min
- Plasma Binding [2]: 99 % bound
- Brain Tissue Binding [3]: 94 % bound
- pEC50 [4, 7]: 6.93
- solubility kinetic at 90 min (Kinetic solubility): 57.5 µM (≈ 27 µg/mL)
- pIC50 (BRD2): 6.76
- PAMPA Pm [5]: 1.35
- pIC50 (BRD4): 7.57

SMILES: COc1cc(/C=C/C(=O)N2CCC=CC2=O)cc(OC)c1OC [piperlongumine]
- sCLU levels relative to DMSO control ([4]; U-87 MG cells): significantly increase sCLU levels

SMILES: CCNC(=O)c1cc2c(-c3cc(C(C)(C)O)ccc3Oc3c(C)cc(F)cc3C)cn(C)c(=O)c2[nH]1 [ABBV-774]
- potency as sCLU enhancer, comparison in words ([4]; U-87 MG cells, dose response): less potent sCLU enhancers than pan-BET inhibitors
- pEC50 [4, 8]: 5.96

SMILES: CCCc1nn(C)c2c(=O)[nH]c(-c3cc(Cc4ccc(C(=O)Nc5ccccc5N)cc4)ccc3OCC)nc12 [CM-675]
- pEC50 [4, 8]: 5.22

SMILES: Cc1sc2c(c1C)C(c1ccc(Cl)cc1)=N[C@@H](CC(=O)OC1CCC1)c1nnc(C)n1-2 [DDL-355]
- half-life at 1 µM [1]: 27 min
- Plasma Binding [2]: 86 % bound
- Brain Tissue Binding [3]: 88 % bound
- pEC50 [4, 7]: 7.00
- solubility kinetic at 90 min (Kinetic solubility): 63.7 µM (≈ 29 µg/mL)
- pIC50 (BRD2): 6.79
- PAMPA Pm [5]: 1.42
- pIC50 (BRD4): 7.72

SMILES: Cc1sc2c(c1C)C(c1ccc(Cl)cc1)=NC(CC(=O)NC(C)C(=O)OC(C)C)c1nnc(C)n1-2 (stereo not drawn) [DDL-359]
- half-life at 1 µM [1]: 13 min
- Plasma Binding [2]: 94 % bound
- Brain Tissue Binding [3]: 44 % bound
- pEC50 [4, 7]: 5.63
- solubility kinetic at 90 min (Kinetic solubility): > 100 µM
- pIC50 (BRD2; read-out: BRD2 IC50): 6.89
- PAMPA Pm [5]: 0.71
- pIC50 (BRD4; read-out: BRD4 IC50): 6.45

SMILES: Cc1cc(/N=N/c2ccc(S(=O)(=O)Nc3ccccn3)cc2)c(N)cc1O [MS436]
- potency as sCLU enhancer, comparison in words ([4]; U-87 MG cells, dose response): less potent sCLU enhancers than pan-BET inhibitors

SMILES: O=C(CCCCCCC(=O)Nc1ccccc1)NO [vorinostat]
- nCLU levels [6]: not affecting nCLU levels

SMILES: COc1cc2c(cc1-c1c(C)noc1C)ncc1[nH]c(=O)n(C(C)c3ccccn3)c12 (stereo not drawn) [I-BET151]
- pEC50 ([4]; Homo sapiens, U-87 MG cells, dose response, text and figures, read-out: sCLU EC50): 6.21
- sCLU levels relative to DMSO control ([4]; U-87 MG cells): increased sCLU; also recorded: significantly increase sCLU levels
- nCLU levels [6]: not affecting nCLU levels

SMILES: Cc1sc2c(c1C)C(c1ccc(Cl)cc1)=N[C@@H](CC(=O)NC1CCCC1)c1nnc(C)n1-2 [DDL-353]
- half-life at 1 µM [1]: 8 min
- Plasma Binding [2]: 93 % bound
- Brain Tissue Binding [3]: 79 % bound
- pEC50 [4, 7]: 6.01
- solubility kinetic at 90 min (Kinetic solubility): > 100 µM
- pIC50 (BRD2; read-out: BRD2 IC50): 6.41
- PAMPA Pm [5]: 1.08
- pIC50 (BRD4; read-out: BRD4 IC50): 7.20

SMILES: Cc1sc2c(c1C)C(c1ccc(Cl)cc1)=N[C@@H](CC(=O)NO)c1nnc(C)n1-2 [DDL-360]
- half-life at 1 µM [1]: > 120 min
- Plasma Binding [2]: 88 % bound
- Brain Tissue Binding [3]: 59 % bound
- pEC50 [4, 7]: 6.20
- solubility kinetic at 90 min (Kinetic solubility): > 100 µM
- pIC50 (BRD2; read-out: BRD2 IC50): 6.40
- PAMPA Pm [5]: 1.09
- pIC50 (BRD4; read-out: BRD4 IC50): 7.15

SMILES: CCCCOC(=O)C[C@@H]1N=C(c2ccc(Cl)cc2)c2c(sc(C)c2C)-n2c(C)nnc21 [DDL-358]
- half-life at 1 µM [1]: 14 min
- Plasma Binding [2]: 98 % bound
- Brain Tissue Binding [3]: 93 % bound
- pEC50 [4, 7]: 6.35
- solubility kinetic at 90 min (Kinetic solubility): 59.3 µM (≈ 27.1 µg/mL)
- pIC50 (BRD2): 6.68
- PAMPA Pm [5]: 1.42
- pIC50 (BRD4): 7.55

SMILES: O=C(NO)c1ccc(CNc2cccc3cccnc23)cc1 [MPT0G211]
- pEC50 [4, 8]: 5.00
